The source of these data is patent US20120252773A1, “Method and composition for inhibiting cell proliferation and angiogenesis” (priority 2005, published 2012).

The structures appear in SMILES notation.

For series [1], the system named is Chick Chorioallantoic Membrane (CAM). In words: Chick chorioallantoic membrane (CAM) assay, blood vessel density. The series is classed as in vivo. The settings on record: 12.5 μg per embryo in 0.5% methylcellulose, vs vehicle control. The procedure: A CAM assay was conducted as previously described (K. Amin, J. Li, and W-R. Chao, Cancer Biol. Ther. 2: 173-178, (2003). Briefly, fresh fertile eggs were incubated in a standard egg incubator at 37° C. for 3 days. On Day 3, eggs were cracked under sterile conditions and embryos were placed into 20×100 mm sterile plastic Petri dishes and cultivated at 37° C. in an embryo incubator with a water reservoir on the bottom shelf. Air was continuously bubbled into the water reservoir using a small pump so that the humidity in the incubator was kept constant. On Day 6, a sterile silicon “o” ring was placed on each CAM, and test compound (2) dissolved in 0.5% methylcellulose was delivered into each “o” ring under sterile conditions. Embryos were returned to the incubator. Control embryos received 10 μL of vehicle alone, while 12.5 μg of (2) was delivered to test embryos. On Day 8, embryos were removed from the incubator and kept at room temperature while blood vessel density was determined under each “o” ring using an image capturing system at a magnification of 160×.

Series [2] relates to human endometrial Ishikawa cells. Briefly: Estrogenic activity, alkaline phosphatase, Ishikawa cell-based assay. Conditions: 72 hours. The procedure:
Ishikawa cell based assays were run in parallel on human endometrial Ishikawa cells treated with compound (2) or with 2-methoxyestradiol. 2-Methoxyestradiol is a compound reported in the literature as an anti-angiogenic agent. Cells were cultured in 96-well plates for 48 hours in estrogen- and phenol red-free medium (DMEM/Hamm's F12 medium) containing 5% fetal bovine serum stripped of endogenous estrogens with dextran coated charcoal (Sigma). Compound (2) or other test compounds were then added to the cells and culturing was continued for an additional 72 hours. To the control cells (no (2)), 10^−9 M of […] was added. At the end of 72 hours, alkaline phosphatase activity was measured by adding 5 mM p-nitrophenyl phosphate, 0.24 mM MgCl2, and 1 M diethanolamine (pH 9.8) to the cells while the 96-well plates were kept on ice. The plates were then warmed to room temperature, and the yellow color from the production of p-nitrophenol was measured after 2-3 hours using an ELISA plate reader at a wavelength of 405 nm. The estrogenic activity was defined as the alkaline phosphatase activity stimulated by the test compounds alone as a percentage of that stimulated by estradiol at 10^−9 M. Stimulation by estradiol at 10^−9 M was taken as 100%.

The test system of series [3] is HIF-1α protein in PC-3 prostate cancer cells. Briefly: HIF-1α protein expression by immunoblotting, PC-3 cells. Format: cell-based, human. The settings on record: 6 h. The procedure:
Hypoxia experiments were performed in either of two ways. To produce a very low ambient oxygen concentration (effectively anoxia), we used a protocol in which cells were incubated in a 5% CO2-air atmosphere at 37° C. overnight and then placed in aluminum gas-exchange chambers maintained at 37° C. (Laderoute K R et al. Mol Cell Biol 22: 2515-2523, (2002); Laderoute K R et al. Mol Cell Biol 24: 4128-4137, (2004)). The chambers containing the cells were then placed in a 37° C. circulating water bath and the original atmosphere was repeatedly exchanged with 5% CO2-95% N2 using a manifold equipped with a vacuum pump and a gas cylinder. Atmospheric oxygen partial pressure (pO2) values of less than or equal to 0.01% (relative to air at pO2 of about 21%) can be achieved inside the chambers using this system. Following various hypoxic exposures, the chambers were opened an anaerobic glove box (Bactron X, Sheldon Manufacturing Inc., Cornelius, Oreg.; attached to a cylinder containing 5% CO2-95% N2) to prepare cell lysates without significant reoxygenation. All manipulations of hypoxic cells were performed in the anaerobic glove box. Atmospheric oxygen levels in both the chambers and the glove box have been measured and calibrated using a polarographic oxygen electrode (Oxygen Sensors, Inc., Norristown, Pa.). Hypoxia experiments involving a pO2 of 1% were performed by equilibrating the glove box with an atmosphere of 1% O2 5% CO2 […] held at 37° C. with a circulating fan. Cells were incubated inside a humidified space in the glove box and the medium on the cells was gently and continually agitated by using a rotary shaker. For these experiments, we used RAW 264.7 immortalized mouse macrophages as normal control cells, PC-3 prostate cancer cells, and MDA-MB-231 breast cancer cells, all available from ATCC.
We used immunoblotting to evaluate the experiments. Nuclear lysates were used to detect HIF-1α protein by immunoblotting (Murphy B J et al. Biochem Biophys Res Commun (In Press): 2005). Briefly, cells were placed on ice in air or on Super Ice® cold packs in the anaerobic glove box and the medium was removed. […] After spinning at 9,000×g for 5 min at 4° C., the protein concentrations of the supernatants were determined by using a bicinchoninic acid assay (Pierce Biotechnology). […] Primary antibody binding was detected and visualized by using the ECL Plus Western Blotting Detection System (Amersham Pharmacia Biotech) according to the supplier's instructions. HIF-1α protein was detected by using an anti-HIF-1α monoclonal antibody (Novus Biologicals, Cat. No. NB100-123; diluted 1:500) and a horseradish peroxidase-conjugated anti-mouse IgG secondary antibody (Santa Cruz Biotechnology, Cat. No. sc-2062; diluted 1:20,000). […]
For orientation: In western blotting, separated proteins are transferred to a membrane and probed.

Series [4] has as its system HIF-1α protein in RAW 264.7 immortalized mouse macrophages. In words: HIF-1α protein expression by immunoblotting, RAW 264.7 macrophages. The series is classed as cell-based. The settings on record: RAW 264.7 macrophages (normal cell line). The procedure: Hypoxia experiments were performed in either of two ways. To produce a very low ambient oxygen concentration (effectively anoxia), we used a protocol in which cells were incubated in a 5% CO2-air atmosphere at 37° C. overnight and then placed in aluminum gas-exchange chambers maintained at 37° C. (Laderoute K R et al. Mol Cell Biol 22: 2515-2523, (2002); Laderoute K R et al. Mol Cell Biol 24: 4128-4137, (2004)). The chambers containing the cells were then placed in a 37° C. circulating water bath and the original atmosphere was repeatedly exchanged with 5% CO2-95% N2 using a manifold equipped with a vacuum pump and a gas cylinder. Atmospheric oxygen partial pressure (pO2) values of less than or equal to 0.01% (relative to air at pO2 of about 21%) can be achieved inside the chambers using this system. […] Atmospheric oxygen levels in both the chambers and the glove box have been measured and calibrated using a polarographic oxygen electrode (Oxygen Sensors, Inc., Norristown, Pa.). […]
We used immunoblotting to evaluate the experiments. […] After spinning at 9,000×g for 5 min at 4° C., the protein concentrations of the supernatants were determined by using a bicinchoninic acid assay (Pierce Biotechnology). […] Primary antibody binding was detected and visualized by using the ECL Plus Western Blotting Detection System (Amersham Pharmacia Biotech) according to the supplier's instructions. […]

Regarding `C[C@@H]1Cc2cc(O)ccc2C2CCC3(C)/C(=C/COCCN(C)C)CCC3C21` (stereo partly drawn) [Compound (2), (E)-3-Hydroxy-7α-methyl-21-[(2-dimethylamino)ethoxy]-19-norpregna-1,3,5(10),17(20)-tetraene], the blood vessel density result in series [1] was “drastically decreased the blood vessel density”. The “estrogenic activity (alkaline phosphatase stimulation relative to estradiol at 10^−9 M)” value in series [2] is on record as “essentially no such activity”. The HIF-1α protein expression entry is “potent inhibitory effect” in series [3] (PC-3, anoxic, hypoxic and normoxic conditions, less than or equal to 5 μM); “did not influence” in series [4]. Also, the “cytotoxicity toward PC-3 cells” value in series [3] (PC-3, less than or equal to 5 μM) was “without obvious cytotoxicity”.
